Read-outs that look alike come from different tables or passages of the source.
Columns and labels:
[1] = molecular target: T1, human NK3 receptor (Homo sapiens, UniProt P29371); assay: NK3 receptor efficacy and potency assay (FLIPR Calcium 4 assay, BHK cells; agonist and antagonist mode versus NKB); format: cell-based; settings: read-out: Potency cIC50
T1 construct: expressed in transfected cells; membranes prepared from them
T1 sequence (P29371 1-465): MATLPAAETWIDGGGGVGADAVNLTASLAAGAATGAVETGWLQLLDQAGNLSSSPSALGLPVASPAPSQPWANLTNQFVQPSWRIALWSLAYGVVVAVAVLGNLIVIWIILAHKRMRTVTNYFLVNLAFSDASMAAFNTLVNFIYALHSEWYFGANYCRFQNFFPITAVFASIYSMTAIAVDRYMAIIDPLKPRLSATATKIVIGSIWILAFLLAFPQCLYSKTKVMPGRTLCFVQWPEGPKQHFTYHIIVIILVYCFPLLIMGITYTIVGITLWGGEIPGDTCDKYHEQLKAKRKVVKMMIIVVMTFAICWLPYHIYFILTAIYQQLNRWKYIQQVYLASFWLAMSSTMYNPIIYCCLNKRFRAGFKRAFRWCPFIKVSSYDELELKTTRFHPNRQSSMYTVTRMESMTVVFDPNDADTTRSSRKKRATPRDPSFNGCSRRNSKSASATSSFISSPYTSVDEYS
Method: BHK cells stably expressing the human NK3 receptor were seeded in 100 µl media in black walled clear-base 96-wells plates (Costar) aiming at a confluency of 95-100% at the day of assay. The assay was performed according to the FLIPR Calcium 4 Assay kit (Molecular Devices). At the day of the assay, the media was removed and the cells were washed once with the HBSS buffer (Hanks BSS buffer, pH 7,4 containing 20 mM Hepes) before 100 µl of a solution of the calcium assay reagent dissolved in the HBSS buffer containing 2,5 mM probinicid was added to the cells. The plates were incubated for 60 min at 34°C, 10% CO2 before use in the FLIPR for examination of fluorescence.
For efficacy and potency evaluation of compounds, these were diluted in HBSS buffer prior to test. For test of agonist activity, 25 µl of the diluted compound solution was added and the plate was analyzed for 5 minutes in the FLIPR. […] The plates were subsequently analyzed for 5 minutes before the assay was terminated. The maximal increase in fluorescence over background following each ligand addition was determined.

[2] = molecular target: T1, human NK3 receptor; assay: NK3 receptor binding assay (SPA-based competition binding with 125I-NKB, membranes of BHK cells)
Method: Membranepreparation: BHK cells stably expressing the human NK3 receptor were seeded in harvesting plates in Dulbeccos MEM containing GlutaMax (862 mg/l), 1 mM sodium pyruvate, 10% fetal calf serum, 1% Pen/Strep, I mg/ml G418 and were grown at 34 °C in a humidified atmosphere containing 10% CO2. To increase receptor expression, 10 µM trichotatin A was added to the media 24 hours before harvest of the cells at a confluency of app 90%. Prior to the harvesting, the cells were washed twice with PBS without Mg^2+ og Ca^2+ and subsequently scrapped of in 10 ml PBS pr harvesting plate. The cells suspension were centrifuged at 1500xG in three minutes before resuspension in 15 mM Tris-HCl pH 7,5 buffer containing 2 mM MgCl2; 0,3 mM EDTA and 1 mM EGTA (buffer A). The cell suspention was homogenised and subsequently centrifuged at 40000xG in 30 minutes. The membrane-pellet was resuspended in buffer A containing 250 mM sucrose, alliquoted and stored at - 80°C.
Affinity assay description: The assay was performed as a SPA-based competition-binding assay in a 50 mM Tris pH 7.4 assay buffer containing 120 mM NaCl, 3 mM MnCl2, 40 µg/ml bacitracin, 2 µg/ml Chymostatin, 1 µg/ml Phosphoramidon and 4 µg/ml Leupeptin. App 0.02 nM ^125I-NKB was mixed with test compounds before addition of 4 µg of the homogenised NK3 membrane preparation and 0,025 mg SPA beads in a total volume of 60 µl. The assay plate was subsequently under agitation incubated for 90 min at RT. The plate was centrifugated 10 minutes at 500xG and counted in a topcounter 5 minuttes pr well.
The non-specific binding constituted app 5 % of the total binding.
Data points were expressed in percent of the specific binding of ^125I-NKB and the IC50 values (concentration causing 50 percent inhibition of ^125I-NKB specific binding) were determined by non-linear regression analysis using a sigmoidal variable slope curve fitting. The dissociation constant (Ki) were calculated from the Cheng Prusoff equation (Ki = IG50/(1+(L/KD))), where the concentration of free radioligand L is approximated to the concentration of added ^125I-NKB in the assay (app 0,02 nM).
The KD of ^125I-NKB was determined to be 0,7 nM from three independent saturation assays each performed with duplicate determinations. Bmax was app 2 pmol/mg.

[3] = table of Example 10, affinity obtained as described in Example 9, read-out: Affinity Ki

SMILES	IC50 [1]	Ki [2, 3]	Ki ([2]; Ki for the NK3 receptor, table of Example 9, 125I-NKB competition binding, read-out: Ki)
CC[C@H](NC(=O)c1c(CN2CCC(O)(c3cccc(OC)c3)CC2)n(-c2ccccc2)c(=O)c2c(Cl)cccc12)c1ccccc1 [Example 2kn, 8-Chloro-3-[4-hydroxy-4-(3-methoxy-phenyl)-piperidin-1-ylmethyl]-1-oxo-2-phenyl-1,2-dihydro-isoquinoline-4-carboxylic acid ((S)-1-phenyl-propyl)-amide]	41 nM	8.7 nM	
CC[C@H](NC(=O)c1c(CN2CCN(C(C)(C)C)CC2)n(-c2ccccc2)c(=O)c2c(Cl)cccc12)c1ccccc1 [Example 2ko, 3-(4-tert-Butyl-piperazin-1-ylmethyl)-8-chloro-1-oxo-2-phenyl-1,2-dihydro-isoquinoline-4-carboxylic acid ((S)-1-phenyl-propyl)-amide]	5.6 nM	11 nM	
CC[C@H](NC(=O)c1c(CN2CCN(C(C)(C)C)CC2)n(-c2ccccc2)c(=O)c2c(F)cccc12)c1ccccc1 [Example 2lj, 3-(4-tert-Butyl-piperazin-1-ylmethyl)-8-fluoro-1-oxo-2-phenyl-1,2-dihydro-isoquinoline-4-carboxylic acid ((S)-1-phenyl-propyl)-amide]	16 nM	18 nM	
CC(C)(C)N1CCN(Cc2c(C(=O)N[C@H](c3cccc(F)c3)C3CC3)c3cccc(F)c3c(=O)n2-c2ccccc2)CC1 [Example 2ll, 3-(4-tert-Butyl-piperazin-1-ylmethyl)-8-fluoro-1-oxo-2-phenyl-1,2-dihydro-isoquinoline-4-carboxylic acid [(S)-cyclopropyl-(3-fluoro-phenyl)-methyl]-amide]	6.3 nM	7.9 nM	
CC[C@H](NC(=O)c1c(CN2CCC3(CC2)OCCO3)n(-c2ccccc2)c(=O)c2ccccc12)c1ccccc1 [Example 2u, 3-(1,4-Dioxa-8-aza-spiro[4.5]dec-8-ylmethyl)-1-oxo-2-phenyl-1,2-dihydro-isoquinoline-4-carboxylic acid ((S)-1-phenyl-propyl)-amide]	96 nM	90 nM	

More lines, now with the values ahead:

IC50 [1]	Ki [2, 3]	Ki ([2]; Ki for the NK3 receptor, table of Example 9, 125I-NKB competition binding, read-out: Ki)	SMILES
270 nM	88 nM	72 nM	CC[C@H](NC(=O)c1c(CN2CCCC2=O)n(-c2ccccc2)c(=O)c2ccccc12)c1ccccc1 [Example 3a, 1-Oxo-3-(2-oxo-pyrrolidin-1-ylmethyl)-2-phenyl-1,2-dihydro-isoquiline-4-carboxylic acid ((S)-1-phenyl-propyl)-amide]
47 nM	32 nM		CC[C@H](NC(=O)c1c(CN2CCCC2=O)n(-c2ccccc2)c(=O)c2c(Cl)cccc12)c1ccccc1 [Example 3b]
46 nM	16 nM		O=C(N[C@H](c1cccc(F)c1)C1CC1)c1c(CN2CCCC2=O)n(-c2ccccc2)c(=O)c2c(Cl)cccc12 [Example 3d, 8-Chloro-1-oxo-3-(2-oxo-pyrrolidin-1-ylmethyl)-2-phenyl-1,2-dihydro-isoquinoline-4-carboxylic acid [(S)-cyclopropyl-(3-fluoro-phenyl)-methyl]-amide]
24 nM	23 nM		Cc1c(C(=O)N[C@H](c2ccccc2)C2CC2)c2cccc(F)c2c(=O)n1-c1ccccc1 [Example 6c, 8-Fluoro-3-methyl-1-oxo-2-phenyl-1,2-dihydro-isoquinoline-4-carboxylic acid ((S)-cyclopropyl-phenyl-methyl)-amide]
9.9 nM	7 nM		CC(C)(C)N1CCC(Cc2c(C(=O)N[C@H](c3cccc(F)c3)C3CC3)c3cccc(Cl)c3c(=O)n2-c2ccccc2)CC1 [Example 8a, 3-(1-tert-Butyl-piperidin-4-ylmethyl)-8-chloro-1-oxo-2 phenyl-1,2-dihydro-isoquinoline-4-carboxylic acid [(S)-cyclopropyl-(3-fluoro-phenyl)-methyl]-amide]
